Measurements from patent US20060069132A1, “Azolecarboxamide herbicides” (priority 2004, published 2006).

Assays:
[1] = system: pigweed; assay: Test B pre-/postemergence herbicide test; format: in vivo, Amaranthus retroflexus; details: for Pigweed plant response rating: postemergence, visual rating
Outline: (§1)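 Evaluation is visual, comparing treated with control plants on a scale where 0 means no effect and 100 means full control. Treatments were preemergence, or postemergence on seedlings 2–18 cm tall, and held 13–15 days in the greenhouse.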

[2] = system: velvetleaf; assay: Test B pre-/postemergence herbicide test; format: in vivo, Abutilon theophrasti; details: for Velvetleaf plant response rating: postemergence, visual rating
Outline: as §1

[3] = system: ducksalad; assay: Test B flooded paddy test; format: in vivo, Heteranthera limosa; details: 1000 g ai/ha, visual rating, scale 0 to 100 (0 no effect, 100 complete control), 13 to 15 days
Outline: (§2)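 Treated at 2-leaf (paddy) or 1–4-leaf, 2–18 cm (postemergence); greenhouse 13–15 d; visual score vs control, 0 none to 100 complete control; dash = not tested.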

[4] = system: cocklebur; assay: Test B pre-/postemergence herbicide test; format: in vivo, Xanthium strumarium; details: for Cocklebur plant response rating: postemergence, visual rating
Outline: (§3)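 Herbicidal effect was judged by eye on a 0–100 scale after plants stood 13 to 15 days in the greenhouse following pre- or postemergence treatment with surfactant-containing formulations.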

[5] = system: rice; assay: Test B pre-/postemergence herbicide test; format: in vivo, Oryza sativa; details: preemergence
Outline: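 Plants compared with untreated controls 13–15 days post-treatment and given a visual 0–100 injury score. Applications: preemergence to seeds; postemergence at 1- to 4-leaf (2–18 cm); paddy species flooded, 2-leaf stage. Vehicle non-phytotoxic, surfactant included.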

[6] = system: lambsquarters; assay: Test B pre-/postemergence herbicide test; format: in vivo, Chenopodium album; details: for Lambsquarters plant response rating: postemergence, visual rating
Outline: as §1

[7] = system: wheat; assay: Test B postemergence herbicide test; format: in vivo, Triticum aestivum; parameters: key to Wheat plant response rating: 0 = no effect, 100 = complete control; details: scale 0 (no effect) to 100 (complete control); for Plant response rating, Wheat: Postemergence, 500 g ai/ha, visual rating after 13 to 15 days; for Wheat plant response rating: postemergence, 125 g ai/ha, visual rating
Outline: (§4)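 Plants grow to 1- to 4-leaf stage (2–18 cm) for postemergence spraying, or to 2-leaf stage for the paddy test. Formulated compound is applied. Greenhouse holding lasts 13–15 days. Response is scored visually relative to controls, 0 no effect to 100 complete control; a dash means no result.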

[8] = system: morningglory; assay: Test B pre-/postemergence herbicide test; format: in vivo, Ipomoea coccinea; details: for Morningglory plant response rating: postemergence, visual rating
Outline: as §3

[9] = system: barnyardgrass; assay: Test B flooded paddy test; format: in vivo, Echinochloa crus-galli; details: 1000 g ai/ha, visual rating, scale 0 to 100 (0 no effect, 100 complete control), 13 to 15 days
Outline: as §2

[10] = system: barnyardgrass; assay: Test B pre-/postemergence herbicide test; format: in vivo, Echinochloa crus-galli; details: for Barnyardgrass plant response rating: postemergence, visual rating
Outline: as §3

[11] = system: wild oat; assay: Test B postemergence herbicide test; format: in vivo, Avena fatua; details: scale 0 (no effect) to 100 (complete control); for Plant response rating, Oat, Wild: Postemergence, 500 g ai/ha, visual rating after 13 to 15 days; for Oat, Wild plant response rating: postemergence, 125 g ai/ha, visual rating
Outline: as §4

[12] = system: large crabgrass; assay: Test B pre-/postemergence herbicide test; format: in vivo, Digitaria sanguinalis; details: for Crabgrass, Large plant response rating: postemergence, visual rating
Outline: as §1

[13] = system: small flower umbrella sedge; assay: Test B flooded paddy test; format: in vivo, Cyperus difformis; details: 1000 g ai/ha, visual rating, scale 0 to 100 (0 no effect, 100 complete control), 13 to 15 days
Outline: as §2

[14] = system: Surinam grass; assay: Test B pre-/postemergence herbicide test; format: in vivo, Urochloa decumbens; details: for Surinam Grass plant response rating: postemergence, visual rating
Outline: as §1

[15] = system: blackgrass; assay: Test B postemergence herbicide test; format: in vivo, Alopecurus myosuroides; details: scale 0 (no effect) to 100 (complete control); for Plant response rating, Blackgrass: Postemergence, 500 g ai/ha, visual rating after 13 to 15 days; for Blackgrass plant response rating: postemergence, 125 g ai/ha, visual rating
Outline: as §2

[16] = system: giant foxtail; assay: Test B pre-/postemergence herbicide test; format: in vivo, Setaria faberi; details: for Foxtail, Giant plant response rating: postemergence, visual rating
Outline: as §1

[17] = system: rice; assay: Test B flooded paddy test; format: in vivo, Oryza sativa; details: 1000 g ai/ha, visual rating, scale 0 to 100 (0 no effect, 100 complete control), 13 to 15 days
Outline: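 Each value is a visual 0–100 response rating taken against controls 13 to 15 days after treatment in the greenhouse. Plants received formulated chemical postemergence at the 1- to 4-leaf stage or, in flooded paddy, at the 2-leaf stage.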

[18] = system: corn; assay: Test B pre-/postemergence herbicide test; format: in vivo, Zea mays; details: for Corn plant response rating: postemergence, visual rating
Outline: as §1

[19] = Postemergence, 500 g ai/ha, visual rating after 13 to 15 days, scale 0 (no effect) to 100 (complete control)
[20] = 125 g ai/ha, scale 0 (no effect) to 100 (complete control)
[21] = preemergence, 125 g ai/ha, 0 to 100 scale, 0 is no effect, 100 is complete control
[22] = 500 g ai/ha, visual rating 0-100, 0 no effect, 100 complete control, preemergence
[23] = 125 g ai/ha, 0 to 100 scale, 0 is no effect, 100 is complete control

CCOC(=O)c1cc(NC(=O)c2cc(C(C)(C)C)nn2CC)ccc1C [Compound 99]
Plant response rating, Pigweed [1, 19]: 70
Pigweed plant response rating [1, 20]: 20
Plant response rating, Pigweed [1, 21]: 0
Plant response rating, Velvetleaf [2, 22]: 20
Plant response rating, Velvetleaf [2, 19]: 40
Velvetleaf plant response rating [2, 20]: 20
Plant response rating, Velvetleaf [2, 21]: 10
Ducksalad plant response rating [3]: 0
Plant response rating, Cocklebur [4, 22]: 0
Plant response rating, Cocklebur [4, 19]: 30
Cocklebur plant response rating [4, 20]: 0
Plant response rating, Cocklebur [4, 21]: 0
Plant response rating, Rice ([5]; 500 g ai/ha, visual rating 0-100, 0 no effect, 100 complete control): 0
Plant response rating, Rice [5, 23]: 0
Plant response rating, Lambsquarters [6, 22]: 20
Plant response rating, Lambsquarters [6, 19]: 90
Lambsquarters plant response rating [6, 20]: 70
Plant response rating, Lambsquarters [6, 21]: 0
Plant response rating, Wheat [7]: 20
Wheat plant response rating [7]: 20
Plant response rating, Morningglory [8, 22]: 0
Plant response rating, Morningglory [8, 19]: 20
Morningglory plant response rating [8, 20]: 0
Plant response rating, Morningglory [8, 21]: 0
Barnyardgrass plant response rating [9]: 0
Plant response rating, Barnyardgrass [10, 22]: 30
Plant response rating, Barnyardgrass [10, 19]: 0
Barnyardgrass plant response rating [10, 20]: 0
Plant response rating, Barnyardgrass [10, 21]: 0
Plant response rating, Oat, Wild [11]: 40
Oat, Wild plant response rating [11]: 20
Plant response rating, Crabgrass, Large [12, 22]: 70
Plant response rating, Crabgrass, Large [12, 19]: 10
Crabgrass, Large plant response rating [12, 20]: 10
Plant response rating, Crabgrass, Large [12, 21]: 20
Sedge, Umbrella plant response rating [13]: 40
Plant response rating, Surinam Grass [14, 22]: 30
Plant response rating, Surinam Grass [14, 19]: 10
Surinam Grass plant response rating [14, 20]: 10
Plant response rating, Surinam Grass [14, 21]: 10
Plant response rating, Blackgrass [15]: 40
Blackgrass plant response rating [15]: 20
Plant response rating, Foxtail, Giant [16, 22]: 20
Plant response rating, Foxtail, Giant [16, 19]: 30
Foxtail, Giant plant response rating [16, 20]: 10
Plant response rating, Foxtail, Giant [16, 21]: 10
Rice plant response rating [17]: 0
Plant response rating, Corn [18, 22]: 0
Plant response rating, Corn [18, 19]: 20
Corn plant response rating [18, 20]: 10
Plant response rating, Corn [18, 21]: 0

CCCCn1nc(C(C)(C)C)cc1C(=O)Nc1cccc(C(C)=NO)c1 [Compound 119]
Plant response rating, Pigweed [1, 22]: 0
Plant response rating, Pigweed [1, 19]: 30
Pigweed plant response rating [1, 20]: 0
Plant response rating, Pigweed [1, 21]: 0
Plant response rating, Velvetleaf [2, 22]: 10
Plant response rating, Velvetleaf [2, 19]: 50
Velvetleaf plant response rating [2, 20]: 0
Plant response rating, Velvetleaf [2, 21]: 0
Ducksalad plant response rating [3]: 0
Plant response rating, Cocklebur [4, 22]: 0
Plant response rating, Cocklebur [4, 19]: 60
Cocklebur plant response rating [4, 20]: 0
Plant response rating, Cocklebur [4, 21]: 0
Plant response rating, Rice [5, 23]: 0
Plant response rating, Lambsquarters [6, 22]: 0
Plant response rating, Lambsquarters [6, 19]: 60
Lambsquarters plant response rating [6, 20]: 0
Plant response rating, Lambsquarters [6, 21]: 0
Plant response rating, Wheat [7]: 0
Wheat plant response rating [7]: 0
Plant response rating, Morningglory [8, 22]: 10
Plant response rating, Morningglory [8, 19]: 40
Morningglory plant response rating [8, 20]: 0
Plant response rating, Morningglory [8, 21]: 0
Barnyardgrass plant response rating [9]: 0
Plant response rating, Barnyardgrass [10, 22]: 10
Plant response rating, Barnyardgrass [10, 19]: 10
Barnyardgrass plant response rating [10, 20]: 0
Plant response rating, Barnyardgrass [10, 21]: 0
Plant response rating, Oat, Wild [11]: 20
Oat, Wild plant response rating [11]: 10
Plant response rating, Crabgrass, Large [12, 22]: 80
Plant response rating, Crabgrass, Large [12, 19]: 20
Crabgrass, Large plant response rating [12, 20]: 20
Plant response rating, Crabgrass, Large [12, 21]: 20
Sedge, Umbrella plant response rating [13]: 0
Plant response rating, Surinam Grass [14, 22]: 10
Plant response rating, Surinam Grass [14, 19]: 10
Surinam Grass plant response rating [14, 20]: 10
Plant response rating, Surinam Grass [14, 21]: 0
Plant response rating, Blackgrass [15]: 10
Blackgrass plant response rating [15]: 0
Plant response rating, Foxtail, Giant [16, 22]: 0
Plant response rating, Foxtail, Giant [16, 19]: 10
Foxtail, Giant plant response rating [16, 20]: 10
Plant response rating, Foxtail, Giant [16, 21]: 0
Rice plant response rating [17]: 0
Plant response rating, Corn [18, 22]: 0
Plant response rating, Corn [18, 19]: 30
Corn plant response rating [18, 20]: 10
Plant response rating, Corn [18, 21]: 0
